Assay results reported in ChEMBL document CHEMBL1201862, “PubChem BioAssay data set” (2004).
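Exposure lasted 48 hours, with cells grown in 96-well plates and compounds tested at five concentrations. GI50 is the concentration that inhibits growth by half.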 Active and inactive are the calls of the source. No stated cut-off is given here; in the data, active = GI50 up to about 1.1 µM and inactive = higher.

How the values were obtained:
Assay in all cases: inhibition of tumour cell growth, NCI panel, 48 h
[1] = tested on: ACHN
[2] = tested on: BT-549
[3] = tested on: COLO 205
[4] = tested on: HCC 2998
[5] = tested on: HCT-15
[6] = tested on: Hs-578T
[7] = tested on: KM12
[8] = tested on: MOLT-4
[9] = tested on: NCI-H522
[10] = tested on: OVCAR-3
[11] = tested on: OVCAR-4
[12] = tested on: PC-3
[13] = tested on: RXF 393
[14] = tested on: SF-268
[15] = tested on: SF-539
[16] = tested on: SK-OV-3
[17] = tested on: SNB-19
[18] = tested on: SW-620
[19] = tested on: T47D
[20] = tested on: TK-10

Compound	GI50 [1]	GI50 [2]	GI50 [3]	GI50 [4]	GI50 [5] [µM]	GI50 [6]	GI50 [7]	GI50 [8]	GI50 [9]	GI50 [10]	GI50 [11]	GI50 [12]	GI50 [13]	GI50 [14]	GI50 [15]	GI50 [16]	GI50 [17]	GI50 [18]	GI50 [19]	GI50 [20]
CCCNc1ncnc2[nH]ncc12	> 100 µM (inactive)	> 100 µM (inactive)	> 100 µM (inactive)	> 100 µM (inactive)	> 100	> 100 µM (inactive)	> 100 µM (inactive)	> 100 µM (inactive)	> 100 µM (inactive)	> 100 µM (inactive)	> 100 µM (inactive)	> 100 µM (inactive)	> 100 µM (inactive)	> 100 µM (inactive)	> 100 µM (inactive)	> 100 µM (inactive)	> 100 µM (inactive)	> 100 µM (inactive)	> 100 µM (inactive)	> 100 µM (inactive)
CCOP(=O)(OCC)/C(C#N)=C\c1cccc2ccccc12	> 75.9 µM (inactive)	51.9 µM (inactive)	91.8 µM (inactive)	> 58.5 µM (inactive)	42.7	20.2 µM (inactive)	> 74.8 µM (inactive)	35.4 µM (inactive)	> 88.1 µM (inactive)	> 55.7 µM (inactive)	> 75.3 µM (inactive)	64 µM (inactive)	31.6 µM (inactive)	21.4 µM (inactive)	> 56 µM (inactive)	45.5 µM (inactive)	> 57.1 µM (inactive)	68.5 µM (inactive)	26.8 µM (inactive)	> 100 µM (inactive)
CC(C)(C)OC(=O)N1CCC2(CC1)C(=O)NCN2c1ccccc1	> 100 µM (inactive)	> 100 µM (inactive)	> 100 µM (inactive)	> 100 µM (inactive)	> 100	> 100 µM (inactive)	> 100 µM (inactive)	> 100 µM (inactive)	> 100 µM (inactive)	> 100 µM (inactive)	> 100 µM (inactive)	> 100 µM (inactive)	> 100 µM (inactive)	> 100 µM (inactive)	> 100 µM (inactive)	> 100 µM (inactive)	> 100 µM (inactive)	> 100 µM (inactive)	> 100 µM (inactive)	> 100 µM (inactive)
CC12ON(P(=O)(c3ccccc3)c3ccccc3)C(C)(c3ccccc31)c1ccccc12	> 100 µM (inactive)	> 100 µM (inactive)	> 100 µM (inactive)	> 100 µM (inactive)	> 100	> 100 µM (inactive)	> 100 µM (inactive)	32.7 µM (inactive)	> 100 µM (inactive)	> 100 µM (inactive)	21.5 µM (inactive)	> 100 µM (inactive)	81.7 µM (inactive)	> 100 µM (inactive)	> 100 µM (inactive)	> 100 µM (inactive)	> 100 µM (inactive)	> 100 µM (inactive)	51.3 µM (inactive)	> 100 µM (inactive)
CCOC(=O)CC[C@H](NC(=O)[C@H](N)Cc1ccc(N(CCCl)CCCl)cc1)C(=O)OCC	4.76 µM (inactive)	26.2 µM (inactive)	20.7 µM (inactive)	18.3 µM (inactive)	18.1	22.3 µM (inactive)	16 µM (inactive)	0.386 µM (active)	4.53 µM (inactive)	8.28 µM (inactive)	13.1 µM (inactive)	20.8 µM (inactive)	14.2 µM (inactive)	1.43 µM (inactive)	9.66 µM (inactive)	36.3 µM (inactive)	27.6 µM (inactive)	18 µM (inactive)	8.07 µM (inactive)	> 54.5 µM (inactive)
CN(C)/C=C/c1ccnc2c1C(=O)c1ccccc1C2=O	6.73 µM (inactive)	3.59 µM (inactive)	24.9 µM (inactive)	7.64 µM (inactive)	3.34	2.78 µM (inactive)	9.66 µM (inactive)	22.5 µM (inactive)	8.51 µM (inactive)	3.74 µM (inactive)	23.4 µM (inactive)	8 µM (inactive)	> 59.3 µM (inactive)	13.6 µM (inactive)	12.9 µM (inactive)	44 µM (inactive)	5.89 µM (inactive)	3.21 µM (inactive)	> 48.4 µM (inactive)	> 92.7 µM (inactive)
Nc1nc(SCc2ccccc2[N+](=O)[O-])c2[nH]cnc2n1	> 57.8 µM (inactive)	26.2 µM (inactive)	> 45 µM (inactive)	> 41.5 µM (inactive)	> 56.5	1.93 µM (inactive)	> 57.7 µM (inactive)	> 100 µM (inactive)	> 31.8 µM (inactive)	> 70.8 µM (inactive)	62.2 µM (inactive)	31.5 µM (inactive)	> 62.8 µM (inactive)	> 35.7 µM (inactive)	> 100 µM (inactive)	> 71 µM (inactive)	> 83.2 µM (inactive)	> 73.6 µM (inactive)	23.3 µM (inactive)	> 34.8 µM (inactive)
Oc1c2ccccc2c2c3c(cccc13)N=N2 [SP-600125]	6.64 µM (inactive)	30.8 µM (inactive)	19.5 µM (inactive)	9.62 µM (inactive)	8.04	55.1 µM (inactive)	2.62 µM (inactive)	20.4 µM (inactive)	12.2 µM (inactive)	15.3 µM (inactive)	31.9 µM (inactive)	23.3 µM (inactive)	20.7 µM (inactive)	18.5 µM (inactive)	32.2 µM (inactive)	21 µM (inactive)	50 µM (inactive)	10.9 µM (inactive)	> 100 µM (inactive)	5.93 µM (inactive)
